Data on five compounds can be found in patent publication US10781183B2, “Small molecule inducers of reactive oxygen species and inhibitors of mitochondrial activity” (The Regents of the University of Michigan, priority 2016, dated 2020).

Counter-ions that a name gives are not always drawn. Like-named read-outs stand apart in the source and are kept apart here.

The subject of data set [1] is mtDNA content in MiaPaCa-2 cells. Description: Measurement of mtDNA content by qPCR. The format is cell-based. As to conditions: MiaPaCa-2, 6 h; 12S rRNA vs genomic 18S rRNA (FIG. 11B). The method, then: To assess mtDNA content, genomic DNA was isolated with QIAamp® DNA mini kit (Qiagen, Germantown, Md.) from MiaPaCa-2 cells. The mtDNA content was evaluated by co-amplifying a DNA fragment encoding mitochondrial 12S rRNA (forward primer: 5′-[…]-3′; reverse primer: 5′-TGCGCTTACTTTGTAG CCTTCAT-3′) and a DNA fragment encoding the nuclear 18S rRNA (forward primer: 5′-CCCTGCC CTTTGTACACACC-3′; reverse primer: 5′-GATCCGAGGGCCTCACTA-3′). (Vadrot et al., 2012) Real-time qPCR was performed on Viia7 cycler (Applied Biosystems). Amplifications were monitored and analyzed by measuring the intercalation of the fluorescent dye from Fast SYBR® Green Master Mix (Applied Biosystems). Relative mtDNA contents were calculated using 18S rRNA as gene reference.

For data set [2], the system named is MiaPaCa-2 cells. Description: ROS detection assay (H2DCFDA probe). The format is cell-based. As to conditions: for ROS induction after NAC pretreatment: NAC 5 mM for 30 min pretreatment (FIG. 3B). As for the experimental part: To quantify ROS induction by redox modulators, a high throughput ROS assay in 384-well plates using H2DCFDA as the ROS detection probe was developed (FIG. 1A).
Cells were detached by 0.05% trypsin-EDTA, neutralized, centrifuged (1200 rpm, 5 min) and resuspended in cell culture media. Suspension were then treated with 20 μM cell permeable H2DCFDA for 30 min at 37° C. Cells were then centrifuged (1200 rpm, 5 min) and washed with cell culture media to remove excess probe. After washing, cells were placed in black-wall 384-well plate at 20,000 cells/well, incubated for 30 min and treated by compounds at designated conditions. Fluorescent signal were then read at 493 nm/523 nm on BioTek H1 plate reader for ROS detection.

Data set [3] has as its system MiaPaCa-2 cells. Description: MTT cytotoxicity assay, MiaPaCa-2. The format is cell-based. As to conditions: MTT assay; for cytotoxicity in presence of NAC: NAC 5 mM (FIG. 3C); for IC50: Homo sapiens, Mean ± SD, three independent experiments. As for the experimental part:
(§1) MiaPaCa-2, Panc-1 and BxPC-3 pancreatic cancer cell lines were obtained from the ATCC. Normal pancreatic cells HPDE and HPNE were kindly provided (Translational Oncology Program, University of […], Ann Arbor, Mich.). Gemcitabine resistant cell line MiaPaCa-2-GR (gemcitabine resistant) was kindly provided (Department of Pathology, Wayne State University, Detroit, Mich.). All cell lines were cultured as monolayer and maintained in RPMI1640 supplemented with 10% fetal bovine serum (FBS) in a humidified atmosphere with 5% CO2 at 37° C. MiaPaCa-2-GR culture was supplemented with 200 nM gemcitabine.
(§2) Cytotoxicity of compounds was evaluated with 3-(4,5-dimethylthiazol-2-yl)-2,5-diphenyltetrazolium bromide (MTT) assay. Cells were placed in 96-well plate at 3000-8000 cells/well. After overnight attachment, compounds were added to the wells at sequential dilutions (30 nM-10 μM for most cell lines). After 72 h treatment, MTT was added into the media to a final concentration of 300 μg/mL. Cells were incubated for 3 h at 37° C., and the insoluble formazan converted by viable cells were dissolved in 150 μL of DMSO. Absorbance at 570 nm was read by microplate reader (Molecular devices, Sunnyvale, Calif.), and inhibition of cell proliferation was calculated using the following formula: Inhibition of cell proliferation (%)=(1−ODtreatment/ODcontrol)×100%

Data set [4] deals with MiaPaCa-2 cells. Description: Bru-seq analysis for nascent RNA synthesis. The format is cell-based. As to conditions: Bru-seq. An excerpt:
A bromouridine labeled RNA sequencing (Bru-seq) technique was used to better characterize molecular mechanisms of these novel agents. Bru-seq is able to capture real-time synthesis of the nascent RNA, so as to provide information on global gene transcription without interference by RNA stability or biased gene selection (Paulsen et al., 2014, Paulsen et al., 2013). […] Profiling of all genes with >1.5-fold change in expression upon treatment of QD232 or QD325 identified NRF2-mediated oxidative stress response and unfolded protein response (UPR) as key pathways implicated in drug action (FIG. 8A).
Bru-seq analysis was performed as previously reported (Paulsen et al., 2014). Briefly, 4×10^6 MiaPaCa-2 cells were placed in 10 cm dishes on Day 1. On Day 2, cells were treated with DMSO, QD232 or QD325 for 4 h. Bromouridine was added into the media to label newly synthesized nascent RNA in the last 30 min of treatment to a final concentration of 2 mM. Cells were then collected in TRIZOL and total RNA was isolated. Bromouridine containing RNA population was further isolated and sent for sequencing. Sequencing reads were mapped to the HG19 reference genome. Pre-ranked gene lists were generated for each treatment through ranking genes by fold changes in gene synthesis levels compared with control, and analyzed with GSEA (Broad Institute, MA) (Subramanian et al., 2005, Mootha et al., 2003)

The subject of data set [5] is MiaPaCa-2 xenograft. Description: MiaPaCa-2 xenograft studies. The format is in vivo, NOD/SCID mice. As to conditions: QD325 5 mg/kg five times a week; gemcitabine 15 mg/kg once a week; control 1503±189 mm^3. As for the experimental part: MiaPaCa-2 cells (2.0×10^6) in a 100 μL suspension of RPMI1640 was injected subcutaneously into dorsal flank of 6-week NOD/SCID mice. Tumor size was monitored twice a week through caliper measurement using the following equation: V=d^2×D/2, where d represents width and D represents length of the tumor. In study 1, mice were randomly grouped (n=5 per group) when average tumor size reached 65 mm^3. Daily treatment was given at five days on two days off cycles. QD325 was given at 5 mg/kg in 100 μL vehicle (5% DMSO, 60% Propylene glycol, 35% Saline) by intraperitoneal injection. […] Unpaired t test was performed for data analysis and p<0.05 was considered significant. […] Procedures for study 2 with gemcitabine treatment are detailed in supplemental information.
On necropsy, tumors, hearts, kidneys, livers, lungs, spleens and pancreases were collected, fixed in 10% neutral buffered formalin, embedded in paraffin, and sectioned. Sections ([…]) were stained with hematoxylin and eosin to facilitate histologic examination. For Ki67 expression level, immunohistochemistry staining was performed on sections with Ki67 antibody. Embedding, sectioning and staining of samples were performed by ULAM pathology core for animal research at the University of Michigan. Representative images were taken on Olympus IX83 microscope with 20× magnification.

The test system of data set [6] is BxPC-3 cells. Description: MTT cytotoxicity assay, BxPC-3. The format is cell-based. As to conditions: Homo sapiens, three independent experiments. As for the experimental part: as §1, §2
The subject of data set [7] is pancreatic cancer. As to conditions: cited from earlier work.
Data set [8] relates to Panc-1 cells. Description: MTT cytotoxicity assay, Panc-1. As to conditions: Homo sapiens, three independent experiments. The format is cell-based. As for the experimental part:
as §1, §2
(Tetrazolium assays rely on reduction of a dye to a coloured formazan, in cell work by metabolically active cells.)

Where [9] appears, read: MIA PaCa-2, 72 h, Table 1, 72 h.
[10] abbreviates: BXPC-3, 72 h, Table 1, 72 h, Mean ± SD.
[11] abbreviates: metastatic pancreatic cancer, gemcitabine group vs FOLFIRINOX group (Conroy et al., 2011).
Where [12] appears, read: PANC-1, 72 h, Table 1, 72 h, Mean ± SD.

As for `OO` [H2O2, reference compound], the “mtDNA content 6 hours after treatment” value in data set [1] is “small but significant decrease in mtDNA content”. In addition, the “ROS induction after NAC pretreatment” value in data set [2] (MiaPaCa-2) is listed as “blocked”. In addition, the “cytotoxicity in presence of NAC” value in data set [3] (72 h) is given as “decreased cytotoxicity”.
Take `CC[C@@]1(O)C(=O)OCc2c1cc1n(c2=O)Cc2cc3ccccc3nc2-1` [camptothecin, reference compound]: the “transcription of mtDNA from mitochondrial promoters HSP2 and LSP on D-loop” value in data set [4] is “no such effect was observed”.
`Nc1ccn([C@@H]2O[C@H](CO)[C@@H](O)C2(F)F)c(=O)n1` [Gemcitabine, 2′-deoxy-2′, 2′-difluorocytidine monohydrochloride (b-isomer), reference compound]: the IC50 in data set [3] (setting [9]) was 0.11 ± 0.07 µM; in data set [6] (setting [10]) it was 0.05 ± 0.02 µM; in data set [8] (setting [12]) it was 0.2 ± 0.1 µM. For the same compound, the “average tumor size at the end of the 48-day treatment period” value in data set [5] is recorded as 387±74 mm^3. In addition, the median overall survival in [7] (setting [11]) is given as 6.8 months; in data set [7] (pancreatic cancer patients, addition of nab-paclitaxel to gemcitabine (Von Hoff et al., 2013)), 6.7 months.
In the case of FOLFIRINOX, the median overall survival in [7] (setting [11]) was 11.1 months.
Consider `COc1cc(NC2=CC(=O)c3ncncc3C2=O)cc(OC)c1OC` [QD326, 6-((3,4,5-trimethoxyphenyl)amino)quinazoline-5,8-dione], for which the melting point (as a rule, the temperature, or range, at which the solid turns liquid) lay within 161 to 162 °C. In addition, the “ROS induction compared with lead compound QD232” value in data set [2] (MiaPaCa-2, 24 h treatment, 10 μM (FIG. 1C)) is reported as “significantly higher ROS induction than the lead compound QD232”. For the same compound, the “accumulation of ROS” value in data set [2] (MiaPaCa-2, 10, 3.3 or 1.1 μM (FIG. 3A)) was “time- and dose-dependent accumulation of ROS”. The “ROS accumulation at 10 and 3.3 μM” value in data set [2] (MiaPaCa-2, 10 and 3.3 μM) is “rapid and high ROS accumulation”. For the same compound, the “ROS induction after NAC pretreatment” value in data set [2] (MiaPaCa-2) is given as “inhibited”. In addition, the IC50 in data set [3] (setting [9]) is 1.5 ± 0.1 µM. Moreover, the IC50 in data set [3] (MIA PaCa-2, Table 2, read-out: IC 50 MiaPaCa-2) turned out to be 1.5 ± 0.1 µM. For the same compound, the “cytotoxicity in presence of NAC” value in data set [3] (72 h) is “decreased cytotoxicity”. This compound also showed an IC50 in data set [6] (setting [10]) of 1.6 ± 0.3 µM. Also, the IC50 in data set [6] (BXPC-3, Table 2, Mean ± SD, read-out: IC 50 BxPC-3) came to 1.6 ± 0.3 µM. In data set [8] (setting [12]), this compound came in with an IC50 of 0.8 ± 0.1 µM. In data set [8] (PANC-1, Table 2, Mean ± SD, read-out: IC 50 Panc-1), the IC50 came to 0.8 ± 0.1 µM.
